# Tests used:
# [1] = system: pLai RLuc reporter virus in MT-4 cells; assay: HIV MT-4 serum shift antiviral reporter assay; format: cell-based; conditions: Human immunodeficiency virus 1, MT4, 72 h, read-out: RLUC CCM
# Experimental: Example 48: HIV MT-4 Serum Shift Antiviral Reporter Assay
# To quantify the amount of protein binding to human serum, compounds were serially diluted (1:3) in DMSO and acoustically transferred onto 384-well assay plates via a Labcyte ECHO robot. Each plate contained up to 8 test compounds, including negative and positive controls, (DMSO, 5 μM AZT respectively). Assay plates were prepared in duplicate, and tested in either CCM (cell culture media) or HS/CCM (human serum/cell culture media). MT-4 cells were first pre-infected with pLai RLuc reporter virus for 2 h at 37° C., then further diluted in either CCM (RPMI media, 10% FBS, 1% P/S) or HS/CCM (RPMI media, 10% FBS, 50% HS, 1% P/S), and subsequently added to each plate using a Biotek Micro Flow dispenser. After a 72-h incubation in a humidified and temperature controlled incubator (37° C.), Renilla Glo (Promega) was added to all assay plates and chemiluminescence read using an Envision plate-reader. EC50 values were defined as the compound concentration that causes a 50% decrease in luminescence signal, and were calculated using a sigmoidal dose-response model to generate curve fits. To determine the amount of protein binding, EC50 fold shifts (or EC50 shifts) were calculated by dividing EC50 (HS/CCM)/EC50 (CCM). […]
# [2] = system: HIV-1 (IIIB) in MT-4 cells; assay: HIV MT-4 antiviral assay; format: cell-based; conditions: Human immunodeficiency virus 1, MT4, 120 h, 5 days, Cell Titer Glo
# Experimental: Example 47: HIV MT-4 Antiviral and Cytotoxicity Assay
# Antiviral Assay in MT-4 Cells
# (§1) Compounds were tested in a high-throughput 384-well assay format for their ability to inhibit the replication of HIV-1 (IIIB) in MT-4 cells. Compounds were serially diluted (1:3) in DMSO on 384-well polypropylene plates and further diluted 200-fold into complete RPMI media (10% FBS, 1% P/S) using the Biotek Micro Flow and Labcyte ECHO acoustic dispenser. Each plate contained up to 8 test compounds, with negative (No Drug Control) and 5 μM AZT positive controls. MT-4 cells were pre-infected with 10 μL of either RPMI (mock-infected) or a fresh 1:250 dilution of HIV-1 IIIB concentrated virus stock. Infected and uninfected MT-4 cells were further diluted in complete RPMI media and added to each plate using a Micro Flow dispenser. After 5 days incubation in a humidified and temperature controlled incubator (37° C.), Cell Titer Glo (Promega) was added to the assay plates and chemiluminescence read using an Envision plate-reader. EC50 values were defined as the compound concentration that causes a 50% decrease in luminescence signal, and were calculated using a sigmoidal dose-response model to generate curve fits.
# [3] = High throughput microsomal stability assay (human liver microsomes); format: in vitro ADME; conditions: for HLM stability: human liver microsomes, 1 uM compound, NADPH + UDPGA cofactors, 37 C
# Experimental: Example 49: High Throughput Microsomal Stability Assay
# Metabolic stability of compounds was assessed using Human, or Rat Liver Microsomal assays (Corning). In this assay, 10 nL compounds at concentration of 1 mM in 100% DMSO were dispensed into 384-well polypropylene plates using the Echo 550 acoustic liquid dispenser (Labcyte®). Each plate contained 384 wells with a single test compound in each well.
# A solution of human (Corning® Gentest™ Human Mixed Pooled Microsomes), or rat (Corning® Gentest™ Rat [Sprague-Dawley] Pooled Liver Microsomes) liver microsomes at 2 mg/ml in 100 mM K2HPO4/KH2PO4 pH 7.4 with Alamethicin from Trichoderma viride (Sigma-Aldrich) 0.0225 mg/ml were incubated on ice for 15 minutes. 5 uL of this solution was added to individual wells following 15 minute incubation at room temperature; and supplemented with 5 uL NADPH Regenerating Solution of cofactors (Corning® Gentest™ UGT Reaction Mix) containing 100 mM K2HPO4/KH2PO4 pH 7.4, 2.6 mM NADP+, 6.6 mM glucose-6-phosphate, 6.6 mM MgCl2, 0.8 U/mL glucose-6-phosphate dehydrogenase, 0.1 mM Sodium Citrate, 6.8 mM uridine diphosphate-glucuronic acid. Final concentration of analyte compounds at the beginning of the reaction was 1 uM. The reactions were incubated at 37° C. and time points of 0, 5, 15, 30, 40, 50, 60, and 70 minutes were collected for further analysis. Background data were collected using reactions without analyte compounds.
# Upon collection of the reaction time points, samples were quenched with 30 uL of a solution of 72% acetonitrile, 8% methanol, 0.1% formic acid, 19.9% water, and internal standard (IS). Reaction plates were span in a centrifuge at speed of 4,000 rcf for 30 minutes and 4° C., following a dilution of the 10 uL quenched reaction into 40 uL de-ionized water, yielding assay plates.
# Assay plates were analyzed using solid-state extraction coupled with quadrupole time-of-flight mass spectrometer, using Agilent QToF 6530 RapidFire 360 system, with C4 type A solid state cartridges. Analysis was performed in either positive or negative ionization modes. Mobile phases contained 0.1% formic acid in water for loading analytes onto solid state extraction cartridges, and 0.1% formic acid in acetonitrile for elution into mass spectrometer in positive ionization mode, or 0.1% acetic acid in water for loading and 0.1% acetic acid in acetonitrile for extraction in negative ionization mode. Peak-area ratios of integrated counts for individual compounds to IS were plotted as semi-logarithmic chart of log vs time. Initial, linear portion of decay was fitted to a linear regression equation to derive half time of a compound decay.
# Pharmacological parameters for an analyte compound metabolism were calculated using the following equations: […]
# Where. Calculation of In Vitro Intrinsic Clearance
# Concentration refers to the protein concentration (mg/mL) in the reaction.
# Calculation of In Vivo Intrinsic Clearance
# This scales the in vitro intrinsic clearance up to the value that would be predicted for the entire mass of liver tissue (but with no restriction by blood flow). The value depends upon the size of the liver (species-dependent) and the yield of microsomal protein as appropriate (assumed to be species-independent).
# Calculation of Predicted Clearance
# Hepatic clearance will depend upon the inter-relationship of intrinsic clearance and hepatic blood flow and can be predicted from in vitro data using a variety of approaches.
# Calculation of Hepatic Extraction
# This is simply the predicted clearance expressed as a proportion of hepatic blood flow. E=CL/QH*100%
# Intrinsic clearance of the instant compounds, as well as for reference compounds A-F, were calculated following the procedure above.
# [4] = Cytotoxicity assay in MT-4 cells; format: cell-based; conditions: human, uninfected MT-4 cells, Cell Titer Glo
# Experimental: as §1, with “fits. Cytotoxicity Assay in MT-4 Cells Assays were performed as above except uninfected MT-4 cells were added to each well containing test compound. In addition, 10 μM puromycin was added to the last column of each assay plate to assess a base level of cytotoxicity.” for “fits.”
Compound,EC50 [1] [nM],EC50 [2] [nM],HLM stability [3] [mL/min/kg],MS Cl improvement ([3]; relative to compound F),CC50 at 5 days [4] [nM],MS Cl improvement ([3]; relative to compound A)
"C[C@H]1CC[C@](C)(O)[C@H]2CN1C(=O)c1c(O)c(=O)c(C(=O)NCc3ccc(F)cc3F)cn12 (single isomer, unassigned) [Example 12]",0.61,1.4,2.5,3.3 times relative to compound F,41300,
"CO[C@@]1(C)C=C[C@H](C)N2C[C@H]1n1cc(C(=O)NCc3c(F)cc(F)cc3F)c(=O)c(O)c1C2=O (single isomer, unassigned) [Example 24]",,2.2,11.5,,11100,
"C[C@H]1CC[C@@](C)(O)[C@H]2CN1C(=O)c1c(O)c(=O)c(C(=O)NCc3c(F)cc(F)cc3F)cn12 (single isomer, unassigned) [Example 32]",0.43,1.9,9,,34600,
"C[C@@H]1CC[C@](C)(O)[C@H]2CN1C(=O)c1c(O)c(=O)c(C(=O)NCc3ccc(F)cc3F)cn12 (single isomer, unassigned) [Example 35]",1.45,3.2,10.3,,11700,
"CO[C@@H]1CC(F)(F)[C@H](C)N2C[C@H]1n1cc(C(=O)NCc3c(F)cc(F)cc3F)c(=O)c(O)c1C2=O (single isomer, unassigned) [Example 36]",0.33,2.6,3.3,,27300,
"CO[C@@H]1C[C@@H](F)[C@H](C)N2C[C@H]1n1cc(C(=O)NCc3c(F)cc(F)cc3F)c(=O)c(O)c1C2=O (single isomer, unassigned) [Example 38]",0.34,1.8,3.17,,25500,
"CO[C@H]1CC[C@H](C)N2C[C@H]1n1cc(C(=O)NCc3c(F)cc(F)cc3F)c(=O)c(O)c1C2=O [Example 1, (3S,6S,7R)-12-hydroxy-6-methoxy-3-methyl-1,11-dioxo-N-(2,4,6-trifluorobenzyl)-1,4,5,6,7,11-hexahydro-3H-2,7-methanopyrido[1,2-a][1,4]diazonine-10-carboxamide]",0.55,1.5,3.5,,34800,3.2 times relative to compound A
"C[C@H]1CC[C@H](O)[C@H]2CN1C(=O)c1c(O)c(=O)c(C(=O)NCc3c(F)cc(F)cc3F)cn12 [Example 2, (3S,6S,7R)-6,12-dihydroxy-3-methyl-1,11-dioxo-N-(2,4,6-trifluorobenzyl)-1,4,5,6,7,11-hexahydro-3H-2,7-methanopyrido[1,2-a][1,4]diazonine-10-carboxamide]",0.53,1.8,2.5,,50000,
"C[C@H]1C=C[C@H](O)[C@H]2CN1C(=O)c1c(O)c(=O)c(C(=O)NCc3c(F)cc(F)cc3F)cn12 [Example 14, (3S,6S,7R)-6,12-dihydroxy-3-methyl-1,11-dioxo-N-(2,4,6-trifluorobenzyl)-1,6,7,11-tetrahydro-3H-2,7-methanopyrido[1,2-a][1,4]diazonine-10-carboxamide]",,4.2,2.67,,50000,
"C[C@H]1C=C[C@H](O)[C@H]2CN1C(=O)c1c(O)c(=O)c(C(=O)NCc3ccc(F)cc3F)cn12 [Example 20, (3S,6S,7R)—N-(2,4-difluorobenzyl)-6,12-dihydroxy-3-methyl-1,11-dioxo-1,6,7,11-tetrahydro-3H-2,7-methanopyrido[1,2-a][1,4]diazonine-10-carboxamide]",,2.8,1.83,,30000,
"C[C@H]1C=C[C@H](OC(F)F)[C@H]2CN1C(=O)c1c(O)c(=O)c(C(=O)NCc3c(F)cc(F)cc3F)cn12 [Example 22, (3S,6S,7R)-6-(difluoromethoxy)-12-hydroxy-3-methyl-1,11-dioxo-N-(2,4,6-trifluorobenzyl)-1,6,7,11-tetrahydro-3H-2,7-methanopyrido[1,2-a][1,4]diazonine-10-carboxamide]",,1.7,14,,8910,
"[2H]C([2H])([2H])[C@]1(O)C=C[C@H](C)N2C[C@H]1n1cc(C(=O)NCc3ccc(F)cc3F)c(=O)c(O)c1C2=O [Example 30, (1R,10S,13S)—N-[(2,4-difluorophenyl)methyl]-6,13-dihydroxy-10-methyl-5,8-dioxo-13-(trideuteriomethyl)-2,9-diazatricyclo[7.4.1.02,7]tetradeca-3,6,11-triene-4-carboxamide]",,2.1,1.83,,7480,

# From patent US12421235B2, “Bridged tricyclic carbamoylpyridone compounds and uses thereof” (Gilead Sciences, Inc., priority 2020, dated 2025)
